Entries after “also recorded” stand apart in the source; their conditions may differ.
Legend:
Format in all cases: cell-based, murine
[1] = target: T1, Piezo1 (Mus musculus, UniProt E2JF22); experiment: Intracellular calcium concentration (Fluo-8) in control or Piezo1 knock-down MLO-Y4 cells; details: Piezo1 knock-down (sh-Piezo1) MLO-Y4 cells, 10 μM
T1 construct: To identify Piezo1 stimulators, we treated MLO-Y4 cells with compounds; endogenous in cells; host or cells: MLO-Y4 (murine osteocyte-like cell line); control sh-Luc cells, with sh-Piezo1 knock-down cells as the specificity control
T1 sequence (E2JF22 whole entry): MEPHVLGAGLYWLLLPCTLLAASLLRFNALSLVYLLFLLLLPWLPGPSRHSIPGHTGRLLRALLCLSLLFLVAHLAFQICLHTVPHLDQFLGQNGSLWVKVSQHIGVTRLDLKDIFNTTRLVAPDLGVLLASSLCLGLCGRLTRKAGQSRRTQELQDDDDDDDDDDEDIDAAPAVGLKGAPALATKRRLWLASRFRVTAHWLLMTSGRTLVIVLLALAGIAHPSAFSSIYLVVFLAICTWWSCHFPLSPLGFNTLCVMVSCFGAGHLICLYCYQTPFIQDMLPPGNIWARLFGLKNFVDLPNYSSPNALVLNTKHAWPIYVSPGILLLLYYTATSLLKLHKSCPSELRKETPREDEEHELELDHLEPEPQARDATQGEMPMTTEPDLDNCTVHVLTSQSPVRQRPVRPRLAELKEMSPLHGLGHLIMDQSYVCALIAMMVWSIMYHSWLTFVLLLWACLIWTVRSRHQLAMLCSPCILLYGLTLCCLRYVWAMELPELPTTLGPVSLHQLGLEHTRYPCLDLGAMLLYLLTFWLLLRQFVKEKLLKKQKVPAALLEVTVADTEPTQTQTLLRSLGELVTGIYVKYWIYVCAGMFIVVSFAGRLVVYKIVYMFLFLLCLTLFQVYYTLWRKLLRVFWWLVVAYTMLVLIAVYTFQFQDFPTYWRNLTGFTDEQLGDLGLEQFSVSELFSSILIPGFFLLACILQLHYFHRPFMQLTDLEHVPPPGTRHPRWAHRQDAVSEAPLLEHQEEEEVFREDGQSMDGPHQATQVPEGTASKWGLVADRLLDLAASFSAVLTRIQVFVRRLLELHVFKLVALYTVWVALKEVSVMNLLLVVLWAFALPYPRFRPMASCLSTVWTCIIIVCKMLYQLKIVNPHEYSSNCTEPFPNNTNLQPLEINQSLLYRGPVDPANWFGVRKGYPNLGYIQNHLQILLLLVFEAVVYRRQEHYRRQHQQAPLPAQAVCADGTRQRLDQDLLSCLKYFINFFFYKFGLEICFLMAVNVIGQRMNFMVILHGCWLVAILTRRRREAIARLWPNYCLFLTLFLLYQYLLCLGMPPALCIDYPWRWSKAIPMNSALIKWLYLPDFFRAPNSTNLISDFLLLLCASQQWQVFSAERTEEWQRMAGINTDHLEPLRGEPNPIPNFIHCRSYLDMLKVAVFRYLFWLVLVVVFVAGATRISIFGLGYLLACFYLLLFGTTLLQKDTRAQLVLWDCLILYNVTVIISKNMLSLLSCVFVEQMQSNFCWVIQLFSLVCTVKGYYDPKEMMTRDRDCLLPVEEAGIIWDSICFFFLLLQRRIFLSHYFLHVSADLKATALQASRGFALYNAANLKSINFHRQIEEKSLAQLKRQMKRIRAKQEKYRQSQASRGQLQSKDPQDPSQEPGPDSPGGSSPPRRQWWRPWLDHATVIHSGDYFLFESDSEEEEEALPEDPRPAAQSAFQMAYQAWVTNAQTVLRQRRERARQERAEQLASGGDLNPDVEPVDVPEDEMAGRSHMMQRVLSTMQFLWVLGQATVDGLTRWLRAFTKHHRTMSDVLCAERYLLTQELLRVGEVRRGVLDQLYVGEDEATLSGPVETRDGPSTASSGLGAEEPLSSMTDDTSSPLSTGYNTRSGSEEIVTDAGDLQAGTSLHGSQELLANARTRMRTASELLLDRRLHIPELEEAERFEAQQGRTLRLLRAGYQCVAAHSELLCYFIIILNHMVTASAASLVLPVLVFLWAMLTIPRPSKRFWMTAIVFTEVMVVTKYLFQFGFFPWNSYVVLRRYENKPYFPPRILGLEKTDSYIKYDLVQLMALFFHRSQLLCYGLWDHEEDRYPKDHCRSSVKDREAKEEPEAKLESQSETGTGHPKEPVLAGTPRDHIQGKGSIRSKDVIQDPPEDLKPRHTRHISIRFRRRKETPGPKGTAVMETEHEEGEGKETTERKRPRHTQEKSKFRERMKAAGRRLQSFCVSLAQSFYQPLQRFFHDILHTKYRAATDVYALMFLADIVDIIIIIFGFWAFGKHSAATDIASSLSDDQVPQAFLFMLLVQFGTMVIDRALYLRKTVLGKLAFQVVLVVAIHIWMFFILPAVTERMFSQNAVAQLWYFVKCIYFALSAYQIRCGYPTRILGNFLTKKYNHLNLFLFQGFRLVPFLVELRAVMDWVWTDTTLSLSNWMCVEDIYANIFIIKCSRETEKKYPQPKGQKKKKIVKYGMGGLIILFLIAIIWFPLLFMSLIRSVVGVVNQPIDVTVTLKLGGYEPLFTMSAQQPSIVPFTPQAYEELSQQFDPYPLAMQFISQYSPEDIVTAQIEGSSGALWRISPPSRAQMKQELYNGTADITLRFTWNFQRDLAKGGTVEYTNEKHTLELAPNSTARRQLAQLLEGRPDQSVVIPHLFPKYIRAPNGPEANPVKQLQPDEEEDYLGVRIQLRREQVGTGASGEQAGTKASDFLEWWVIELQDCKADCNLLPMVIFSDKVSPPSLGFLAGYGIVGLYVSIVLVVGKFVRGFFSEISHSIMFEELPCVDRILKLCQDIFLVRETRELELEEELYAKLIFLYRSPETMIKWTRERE
Experimental: Calcium concentration measurement. For intracellular calcium concentration measurement under fluid flow condition, 1×10^5 MLO-Y4 cells were seeded in a μ-Slide I Luer (0.4 mm) fluid chamber slide (MIDI, Germany) overnight. One hour before initiating fluid flow, the culture medium was removed and 100 μl Hank's Buffer with Hepes (HHBS) containing 4μM Fluo-8 (Abcam, Cambridge, MA) was added to the culture, as described by the manufacturer. The cells were then cultured at 37° C. for 30 minutes. After additional incubation at room temperature for 30 minutes, the chamber slide was placed under a confocal microscope in order to record the intensity of fluorescence of MLO-Y4 cells. Fluorescence was recorded for 3 minutes before starting fluid flow using HHBS and then recorded for another 10 minutes. The increase of intracellular concentration was calculated by subtracting the initial mean fluorescence. For measuring intracellular calcium concentration in cells with Yoda1 treatment, we cultured 4,000 MLO-Y4 cells per well in a 96-well-plate. We preloaded the cells with Fluo-8 as described by the manufacturer and read the intensity of the fluorescence using a Victor X3 multi-label plate reader (Perkin Elmer, Waltham, MA) immediately after the treatment. We measured the fluorescence for 5 minutes at an interval of 20 seconds. The percentage of increase in intracellular calcium concentration was calculated as (Fx-F0)/F0.
(§1) To identify Piezo1 stimulators, we treated MLO-Y4 cells with compounds Yoda1, YW-3-159, W-3-163, W-3-168-1, W-3-168-2, W-3-170, W-3-173-1, W-3-173-2, and YW-3-174. Gene expression of Wnt1, Ptgs2, and Tnfrsf11b was measured to determine the activation of Piezo1. In addition, intracellular calcium concentration was measured to determine the activity of Piezo1 channel. […] Yoda1 was used as a positive control in all experiments.

[2] = target: T1, Piezo1; experiment: qPCR gene expression of Wnt1, Ptgs2 and Tnfrsf11b in MLO-Y4 cells; details: MLO-Y4 cells, 10 μM, 2 hours
Experimental: Cell cultures. MLO-Y4 cells were cultured in α-MEM supplemented with 5% FBS, 5% BCS, and 1% penicillin/streptomycin/glutamine. Fifteen dynes/cm^2 oscillatory fluid shear stress was applied on MLO-Y4 cells at 1 Hz for 2 hours using an IBDI pump system (IBIDI, German). For Yoda1 treatment, cells were cultured in the presence of 10 μM Yoda1 (Sigma, St. Louis, MO) or DMSO for 2 hours. Immediately after the treatments, we isolated RNA from cells using RNeasy mini kit (Qiagen, German) for qPCR or RNA-seq analysis. To silence Piezo1, we generated Piezo1 shRNA expression plasmid using the following oligonucleotides in the pLKO.1-TRC cloning vector (Addgene Plasmid #10878, a gift from David Root): forward oligo: 5′-CCGGTC-[…]-3′ (SEQ ID NO: 1); reverse oligo: 5′-[…]-CGA-3′ (SEQ ID NO: 2) (Zhang et al., 2017). Yap1 shRNA (TRCN0000238432) and Taz shRNA (TRCN0000095951) were purchased from Sigma (St. Louis, MO). A shRNA against firefly luciferase was used as a control (Sigma, St. Louis, MO). For virus production, HEK293T cells were cultured in a 6-well culture plate and co-transfected with a total 3 μg of lentiviral shRNA vector, pMD2G (Addgene plasmid #12259, a gift from Didier Trono), and psPAX2 (Addgene plasmid #12260, a gift from Didier Trono) at the ratio of 2:0.9:0.4 using TransIT-LT1 transfection reagent (Mirus, Madison, WI). Culture media was changed 12 hours after transfection and viral supernatants were collected 48 hours after media change. Viral supernatants were filtered through a 0.45 μm filter and used immediately to transduce cells cultured in a 10 cm dish. Cells were then subjected to selection with G418 (100 μg/ml) or puromycin (25 μg/ml) for 5 days before treatment. To overexpress Piezo1 in MLO-Y4 cells, we transfected mPiezo1-IRES-eGFP (Addgene plasmid #80925, a gift from Ardem Patapoutian) into MLO-Y4 cells using TransIT-LT1 transfection reagent (Mirus, Madison, WI) and then treated these cells with 15 dynes/cm^2 oscillatory fluid shear stress at 1 Hz for 2 hours. Plasmids for expression of Cas9 and sgRNAs for knocking out Piezo1 in UAMS-32 cells were prepared by inserting oligonucleotides encoding the desired sgRNA sequence into the pX458 vector using the protocol recommended by the Zhang laboratory (Cong et al., 2013). Plasmids expressing Cas9 and Piezo1 sgRNAs were transfected into UAMS-32 cells using TransIT-LT1 transfection reagent (Mirus, Madison, WI). Cells were sorted into 96-well plates for single cell cloning 48 hours after transfection. Single cell colonies were then screened for homozygous deletion using the following primers: Forward: 5′-[…]-3′ (SEQ ID NO: 5), Reverse: 5′-[…]-3′ (SEQ ID NO: 6). All homozygous mutant cell colonies were then pooled together for further analysis. Cas9 transfected cells were used as a control. All in vitro cell culture experiments were performed three times with three technical replicates.
Quantitative PCR. Organs and whole bones were harvested from animals, removed of soft tissues, and stored immediately in liquid nitrogen. We prepared osteocyte-enriched bone by removing the ends of femurs and tibias and then flushing the bone marrow with PBS. We then scraped the bone surface with a scalpel and froze them in liquid nitrogen for later RNA isolation, or decalcified them for genomic DNA isolation. We isolated total RNA using TRIzol (Life technologies, NY), according to the manufacturer's instructions and prepared cDNA using High Capacity first strand cDNA synthesis kit (Life Technologies). We performed quantitative RT-PCR using the following Taqman assays from Applied Biosystems: Piezo1 (Mm01241549_m1); Piezo2 (Mm01265861_m1); Ptgs2 (Mm00478374_m1); Cyr61 (Mm00487498_m1); Wnt1 (Mm01300-555_g1); Yap1 (Mm011432-63_m1); Taz (Mm01289583_m1); Tnfsf11 Mm00441906_m1; Tnfrsf11b (Mm00435452_m1); Sost (Mm00470479_m1); and ribosomal protein S2 (Mrps2) (Mm00475529_m1). We calculated relative mRNA amounts using the ΔCt method (Livak and Schmittgen, 2001). […]

[3] = target: T1, Piezo1; experiment: Activation of Piezo1 in MLO-Y4 cells, overall conclusion from gene expression and calcium influx
Experimental: as §1

- Ptgs2 expression compared with vehicle [2]: higher Ptgs2 expression
- Tnfrsf11b expression compared with vehicle [2]: higher Tnfrsf11b expression
- Wnt1 expression compared with vehicle [2]: higher Wnt1 expression
- activity in activating Piezo1 compared to Yoda1 ([3]; MLO-Y4 cells in vitro): comparable or superior activity
SMILES: Clc1ccnc(Cl)c1CSc1nnc(-c2cnccn2)s1 [YW-3-159]
- calcium influx / increase of intracellular calcium in Piezo1 knock-down cells [1]: completely blocked; also recorded: loss of their ability to stimulate calcium influx
- Piezo1 agonist activity (conclusion in words) ([3]; MLO-Y4 cells): potent agonists for Piezo1; also recorded: potent and specific Piezo1 agonists
